These results are taken from patent EP2072521A1, “Octahedral metal (III) polypyridyl complexes and their use in prevention and treatment of cancer” (Freie Universität Berlin, priority 2007, dated 2009).

In data set [1] the test system is HT-29 human colon carcinoma cells. Nature of the data set: Antiproliferative effects, crystal violet staining, HT-29 cells. The data set is classed as cell-based. Here is the method: (§1) MCF-7 breast cancer and HT-29 human colon carcinoma cells were maintained in 10 % (v/v) fetal calf serum containing cell culture medium (minimum essential eagle supplemented with 2.2 g NaHCO3, 110 mg/L sodium pyruvate and 50 mg/L gentamicin sulfate adjusted to pH 7.4) at 37°C/5 % CO2 and passaged twice a week according to standard procedures. The antiproliferative effects of Rh1a - Rh5a were determined by an established procedure. Cells were suspended in cell culture medium (MCF-7: 10000 cells/mL, HT-29: 2850 cells/mL), and 100 µL aliquots thereof were plated in 96 well plates and incubated at 37°C/5 % CO2 for 72 h (MCF-7) or 48 h (HT-29). Stock solutions of the compounds in DMSO were freshly prepared and diluted with cell culture medium to the desired concentrations (final DMSO concentration: 0.1 % v/v). The medium in the plates was replaced with the medium containing the compounds in graded concentrations (six replicates). After further incubation for 96 h (MCF-7) or 72 h (HT-29) the cell biomass was determined by crystal violet staining and the IC50 values were established as those concentrations causing 50 % inhibition of cell proliferation. Results were calculated from 2 - 3 independent experiments. The results are summarized in Tab. 1 and Fig. 4. Table 1 IC50 values (µM) for the complexes mer-[RhCl3(DMSO)(pp)] Rh1a - Rh5a
(§2) The antiproliferative effects of the compounds Ir1a - Ir5a were determined as described in Example 2.

Data set [2] has as its system MCF-7 breast cancer. The data set can be described thus: Antiproliferative effects, crystal violet staining, MCF-7 cells. The data set is classed as cell-based, human. As for the experimental part: as §1, §2
The subject of another data set is MCF-7 cells. The data set can be described thus: Cellular uptake of iridium (GF-AAS), MCF-7 cells. The data set is classed as cell-based, human. To be noted: 6 h; for MCF-7 uptake 10 µM: 10 µM complex, 0.0: value below the detection limit; for MCF-7 uptake 100 µM: 100 µM complex. As for the experimental part: (§3) For cellular uptake studies, HT-29 and MCF-7 cells were grown until at least 70 % confluency in 175 cm^2 cell culture flasks. Stock solutions of complexes Ir1a - Ir5a in DMSO were freshly prepared and diluted with cell culture medium to the desired concentrations (final DMSO concentrations: 0.1 % v/v, final complex concentration: 10 or 100 µM). The cell culture medium of the cell culture flasks was replaced with 10 mL of the cell culture medium solutions containing Ir1a - Ir5a (10 µM or 100 µM) and the flasks were incubated for 6 h at 37°C/5 % CO2. The cell pellets were isolated, resuspended in 1 - 5 mL […], lysed by using a sonotrode and approximately diluted using twice distilled water. The iridium content of the samples was determined by graphite furnace atomic absorption spectroscopy (GF-AAS) and the protein content of separate aliquots by the Bradford method. To correct for matrix effects in GF-AAS measurements, samples and standards were adjusted to the same protein concentration by dilution with twice distilled water. Prior to GF-AAS analysis 20 µL triton X-100 (1 %) and 20 µL hydrochloric acid were added to each 200 µL sample of the cell suspensions. Cellular uptake was expressed as ng iridium per mg cell protein for data obtained from 3 independent experiments. Conversion of the ng iridium/mg protein value to the micromolar cellular concentration was performed as described previously.
(§4) A Vario 6 graphite furnace atomic absorption spectrometer (Analytik Jena) was employed for the lr quantification using a wavelength of 208.9 nm with a bandpass of 0.5 nm. A deuterium lamp was used for background correction. Matrix containing standards were obtained by addition of an iridium stock solution (1 mg/mL lr in 5 % HCl). 18 % hydrochloric acid solution was employed as a modifier. Probes were injected at a volume of 25 µL into graphite tubes. The detection limit for the method was 3.8 µg Ir L^-1. The mean AUC (area under curve) absorptions of duplicate injections were used throughout the study.

The next data set has as its system HT-29. Nature of the data set: Cellular uptake of iridium (GF-AAS), HT-29 cells. The data set is classed as cell-based, human. As to conditions: 6 h, 0.0: value below the detection limit; for HT-29 uptake 10 µM: 10 µM complex; for HT-29 uptake 100 µM: 100 µM complex. As for the experimental part: as §3, §4
The test system of the next data set is tumour cell lines. As to conditions: references [7, 8]; cited from earlier work.
The conditions of data set [3]: references [3], [4]; cited from earlier work.
The subject of data set [4] is HT-29 human colon carcinoma cells. To be noted: references [5, 6]; cited from earlier work.
The test system of data set [5] is MCF-7 breast cancer. To be noted: references [5, 6]; cited from earlier work.
The next data set relates to Calu (lung carcinoma). As to conditions: Mestroni et al. [1]; cited from earlier work.
For the next data set, the system named is LoVo (colon carcinoma). As to conditions: Mestroni et al. [1]; cited from earlier work.
The test system of data set [6] is A 2780 (ovarian carcinoma). As to conditions: Mestroni et al. [1]; cited from earlier work.
In another data set the test system is mouse P 388 leukemia. As to conditions: reference [2]; cited from earlier work.
Data set [7] in a line: Stability and isomerization in solution (1H NMR). The data set is classed as physicochemical. To be noted: in DMSO.
Setting [8] is: Table 1, 72 h incubation, 2 - 3 independent experiments, spread in parentheses.
Where [9] appears, read: Table 2, determined as described in Example 2.
Setting [10] is: Table 1, 96 h incubation, 2 - 3 independent experiments, spread in parentheses.

Where two headings read alike, the source gives them in different places. Where only a bound is given, the exact number is not on record here.

As usually defined, the IC50 is the concentration that gives 50% inhibition. Take `N.N.[Cl][Pt][Cl]` [Cisplatin, reference compound]: the IC50 was found to be 7 µM in data set [1] (setting [8]), 7 µM in [1] (setting [9]), 2 µM in the data set with MCF-7 breast cancer [2] (setting [10]) and 2 µM in the data set with MCF-7 breast cancer [2] (setting [9]).
As to `CO.C[S+](C)(=O)[Ir-3]1([Cl])([Cl])([Cl])[n+]2cccc3ccc4ccc[n+]1c4c32.O` [Ir2a, fac-[IrCl3(DMSO)(phen)]·CH3OH·H2O], in the data set on MCF-7 cells, the “MCF-7 uptake 10 µM” value turned out to be 0.0 ng Ir/mg protein and the “MCF-7 uptake 100 µM” value is recorded as 74.4(13.5) ng Ir/mg protein. This compound also had an IC50 in [1] (setting [9]) of 4.6 µM. In the data set on HT-29, the “HT-29 uptake 10 µM” value came to 0.0 ng Ir/mg protein and the “HT-29 uptake 100 µM” value is reported as 21.2(5.2) ng Ir/mg protein. The compound further showed an IC50 in the data set on MCF-7 breast cancer [2] (setting [9]) of 4.6 µM.
For `[Cl][Ir-]([Cl])([Cl])[Cl].c1c[nH+]c[nH]1.c1c[nH]cn1.c1c[nH]cn1` [[ImH][trans-IrCl4(Im)2]], in the data set with tumour cell lines, the biological activity result is “biologically inactive”.
Turning to `c1ccc2nc3c4cccnc4c4ncccc4c3nc2c1` [dppz, dipyrido[3,2-a:2',3'-c]phenazine, reference compound], the IC50 in data set [1] (Homo sapiens, HT-29, Table 1, 72 h incubation, 2 - 3 independent experiments, spread in parentheses) is 1.8 µM; in [1] (Homo sapiens, HT-29, Table 2, determined as described in Example 2), 1.8 µM; in the data set with MCF-7 breast cancer [2] (Homo sapiens, MCF7, Table 1, 96 h incubation, 2 - 3 independent experiments, spread in parentheses), 0.8 µM; in the data set on MCF-7 breast cancer [2] (Homo sapiens, MCF7, Table 2, determined as described in Example 2), 0.8 µM.
With `C1CSCCSCCN1.[Cl][Rh]([Cl])[Cl]` [fac-[RhCl3(9-[ane]-NS2)]], the cytotoxicity entry in data set [3] was “exhibit cytotoxicity”.
Consider `[Cl][Rh]([Cl])[Cl].c1ccc(-c2cccc(-c3ccccn3)n2)nc1` [mer-[RhCl3(tpy)]], for which the cytotoxicity result in [3] is reported as “exhibit cytotoxicity”.
As for “[(DMSO)2H] [[(DMSO)2H] [trans-IrCl4(DMSO)2]]”, the biological activity result in the data set with tumour cell lines was “biologically inactive”.
“[(η^5-C5Me5)IrCl(dppz)](CF3SO3) [compound 6, reference compound]”: the IC50 is 7.4 µM in data set [4], 7.4 µM in data set [1] (setting [9]), 2.3 µM with MCF-7 breast cancer [5] and 2.3 µM in the data set on MCF-7 breast cancer [2] (setting [9]). The “HT-29 uptake 10 µM” value in the data set with HT-29 was 70.4(1.0) ng Ir/mg protein.
For the compound “[(η^5-C5Me5)Ir{(Me2N)2CS}(dppn)](CF3SO3) [compound 7, reference compound]”, the IC50 in data set [1] (setting [9]) was 0.41 µM; in the data set with MCF-7 breast cancer [2] (setting [9]) it was 0.17 µM. Also, the “HT-29 uptake 10 µM” value in the data set with HT-29 is listed as 149.6(7.8) ng Ir/mg protein.
Consider [ImH][trans-IrCl4(DMSO)(Im)], for which, in the data set with tumour cell lines, the biological activity result is “biologically inactive”.
In the case of [Rh(Im)(tpy)2]Cl·3H2O, in data set [3], the cytotoxicity result was “exhibit cytotoxicity”.
On to fac-[IrC/3(DMSO)(dppz)]·2H2O [Ir4a], for which, in the data set with MCF-7 cells, the “MCF-7 uptake 10 µM” value is on record as 3.3(3.3) ng Ir/mg protein and the “MCF-7 uptake 100 µM” value is on record as 644.0(149.1) ng Ir/mg protein. Also, the IC50 in [1] (setting [9]) is 1.5 µM. Besides, in the data set on HT-29, the “HT-29 uptake 10 µM” value is 11.9(3.0) ng Ir/mg protein and the “HT-29 uptake 100 µM” value is on record as 1664.4(473.1) ng Ir/mg protein. This compound also yielded an IC50 with MCF-7 breast cancer [2] (setting [9]) of 0.8 µM.
As for fac-[IrC/3(DMSO)(dpq)·3H2O [Ir3a], in the data set on MCF-7 cells, the “MCF-7 uptake 10 µM” value is 0.3(0.3) ng Ir/mg protein and the “MCF-7 uptake 100 µM” value is 640.5(148.9) ng Ir/mg protein. This compound also registered an IC50 in data set [1] (setting [9]) of 6.1 µM. Also, in the data set with HT-29, the “HT-29 uptake 10 µM” value is 0.0 ng Ir/mg protein and the “HT-29 uptake 100 µM” value is given as 167.8(3.4) ng Ir/mg protein. This compound had an IC50 in the data set on MCF-7 breast cancer [2] (setting [9]) of 5.5 µM.
Turning to fac-[IrCl3(DMSO)(bpy)·2H2O [Ir1a], the IC50 in [1] (setting [9]) was over 100 µM. Moreover, in the data set with HT-29, the “HT-29 uptake 10 µM” value stood at 0.0 ng Ir/mg protein and the “HT-29 uptake 100 µM” value is listed as 0.0 ng Ir/mg protein. The same compound had an IC50 in the data set on MCF-7 breast cancer [2] (setting [9]) of over 100 µM.
For fac-[IrCl3(DMSO)(dppn)]·2CH3OH [Ir5a], in the data set with MCF-7 cells, the “MCF-7 uptake 10 µM” value was 19.3(0.8) ng Ir/mg protein and the “MCF-7 uptake 100 µM” value is 180.8(2.7) ng Ir/mg protein. The same compound had an IC50 in [1] (setting [9]) of 1.3 µM. Moreover, in the data set on HT-29, the “HT-29 uptake 10 µM” value is reported as 37.4(8.9) ng Ir/mg protein and the “HT-29 uptake 100 µM” value is recorded as 226.1(26.6) ng Ir/mg protein. In addition, 0.21 µM corresponded to half-maximal inhibition in the data set on MCF-7 breast cancer [2] (setting [9]) (IC50).
Regarding mer,cis-[RhCl3(DMSO-κS)(Im)2], the figures for the IC50 (in the data set on Calu (lung carcinoma); in the data set on LoVo (colon carcinoma); in [6]) were over 200 µM, 40 ± 15 µM and over 200 µM, respectively.
Turning to mer,cis-[RhCl3(DMSO-κS)(py)2], the “Activity against mouse P 388 leukemia” value in the data set on mouse P 388 leukemia is given as “Activity”.
In the case of mer-[RhCl3(DMSO)(bpy)] [Rh1a], the isomerization result in data set [7] was “isomerize rapidly to a mixture of fac- and mer-isomers”. Besides, the IC50 is 1.9 µM in [1] (setting [8]) and 4 µM with MCF-7 breast cancer [2] (setting [10]).
With mer-[RhCl3(DMSO)(dppn)] [Rh5a], the figures for the IC50 (in [1] (setting [8]); with MCF-7 breast cancer [2] (setting [10])) were 0.07 µM and 0.051 µM, respectively.
Take mer-[RhCl3(DMSO)(dppz)]·1.5H2O [Rh4a]: the IC50 in [1] (setting [8]) was 0.073 µM; in the data set on MCF-7 breast cancer [2] (setting [10]), 0.095 µM.
The matching figures for mer-[RhCl3(DMSO)(dpq)] [Rh3a]: 0.069 µM and 0.079 µM.
Take mer-[RhCl3(DMSO)(phen)]·H2O [Rh2a]: the isomerization entry in [7] was “isomerize rapidly to a mixture of fac- and mer-isomers”. For the same compound, the IC50 amounted to 0.19 µM in data set [1] (setting [8]) and 0.4 µM in the data set with MCF-7 breast cancer [2] (setting [10]).
